14 compounds from ChEMBL document CHEMBL4342421, “Current scenario of tetrazole hybrids for antibacterial activity” (Eur J Med Chem, 2019) can be followed below.

Converted amounts (≈) assume the structure as drawn.

For assay [1], the system named is Escherichia coli. As to the kind of experiment: Antimicrobial activity against Escherichia coli assessed as zone of inhibition at 50 ug/ml. In kind it is functional. The following applies: read-out: IZ.
Assay [2] relates to Staphylococcus aureus. As to the kind of experiment: Antimicrobial activity against Staphylococcus aureus assessed as zone of inhibition at 50 ug/ml. In kind it is functional. The following applies: read-out: IZ.
Assay [3] relates to Aspergillus niger. Description: Antifungal activity against Aspergillus niger assessed as zone of inhibition at 50 ug/ml. Type of assay: functional. The following applies: read-out: IZ.
The test system of assay [4] is Candida albicans. Description: Antifungal activity against Candida albicans assessed as zone of inhibition at 50 ug/ml. The following applies: read-out: IZ. In kind it is functional.
For assay [5], the system named is Bacillus subtilis. As to the kind of experiment: Antimicrobial activity against Bacillus subtilis NCIM 2250 after 48 hrs by NCCLS protocol based method. Type of assay: functional. The following applies: NCIM 2250, 48 h.
Assay [6] concerns Escherichia coli. As to the kind of experiment: Antimicrobial activity against Escherichia coli ATCC 25922 after 48 hrs by NCCLS protocol based method. The following applies: ATCC 25922, 48 h. Type of assay: functional.
Assay [7] has as its system Aspergillus niger. As to the kind of experiment: Antifungal activity against Aspergillus niger NCIM 545 after 48 hrs by NCCLS protocol based method. The following applies: NCIM 545, 48 h. In kind it is functional.
Assay [8] relates to Candida albicans. As to the kind of experiment: Antifungal activity against Candida albicans MTCC 277 after 48 hrs by NCCLS protocol based method. In kind it is functional. The following applies: MTCC 277, 48 h.
Assay [9] relates to Escherichia coli. Description: Antimicrobial activity against Escherichia coli. In kind it is functional.
For assay [10], the system named is Pseudomonas aeruginosa. Description: Antimicrobial activity against Pseudomonas aeruginosa. Type of assay: functional.
The test system of assay [11] is Staphylococcus aureus. Description: Antimicrobial activity against Staphylococcus aureus. Type of assay: functional.
The test system of assay [12] is Bacillus cereus. As to the kind of experiment: Antimicrobial activity against Bacillus cereus. In kind it is functional.
Assay [13] has as its system Candida albicans. Description: Antifungal activity against Candida albicans. In kind it is functional.
Assay [14] deals with Staphylococcus aureus. As to the kind of experiment: Antimicrobial activity against Staphylococcus aureus assessed as zone of inhibition at 250 ug/ml. Type of assay: functional. The following applies: read-out: IZ.
Assay [15] concerns Bacillus cereus. As to the kind of experiment: Antimicrobial activity against Bacillus cereus assessed as zone of inhibition at 250 ug/ml. In kind it is functional. The following applies: read-out: IZ.
In assay [16] the test system is Escherichia coli. Description: Antimicrobial activity against Escherichia coli assessed as zone of inhibition at 250 ug/ml. Type of assay: functional. The following applies: read-out: IZ.
Assay [17] relates to Pseudomonas aeruginosa. As to the kind of experiment: Antimicrobial activity against Pseudomonas aeruginosa assessed as zone of inhibition at 250 ug/ml. The following applies: read-out: IZ. In kind it is functional.
For assay [18], the system named is Candida albicans. Description: Antifungal activity against Candida albicans assessed as zone of inhibition at 250 ug/ml. The following applies: read-out: IZ. Type of assay: functional.
Assay [19] deals with Aspergillus niger. As to the kind of experiment: Antifungal activity against Aspergillus niger assessed as zone of inhibition at 250 ug/ml. Type of assay: functional. The following applies: read-out: IZ.
Assay [20] has as its system Aspergillus niger. Description: Antifungal activity against Aspergillus niger. In kind it is functional.
Assay [21] has as its system Bacillus subtilis. Description: Antimicrobial activity against Bacillus subtilis. Type of assay: functional.
In the next assay the test system is Salmonella typhimurium. Description: Antimicrobial activity against Salmonella typhimurium. In kind it is functional, Salmonella enterica subsp. enterica serovar Typhimurium. The following applies: Salmonella enterica.
For the next assay, the system named is Priestia megaterium. As to the kind of experiment: Antimicrobial activity against Bacillus megaterium. In kind it is functional.
A further assay deals with Micrococcus luteus. As to the kind of experiment: Antibacterial activity against Micrococcus luteus. In kind it is functional.

On to `O=C(/C=C/c1ccc([N+](=O)[O-])cc1)n1nnnc1-c1ccccc1`, for which the zone of inhibition at 50 µg/mL in the assay on Escherichia coli [1], with Staphylococcus aureus [2], with Aspergillus niger [3] and in the assay with Candida albicans [4] was 8 to 15 mm each time.

For the compound `O=C(/C=C/c1ccccc1Cl)n1nnnc1-c1ccccc1`, the zone of inhibition at 50 µg/mL in the assay with Escherichia coli [1], in the assay on Staphylococcus aureus [2], in the assay on Aspergillus niger [3] and in the assay with Candida albicans [4] was 8 to 15 mm throughout.

Turning to `CCOC(=O)C(C#N)C(c1cc2ccc(OC)cc2n2nnnc12)P(=O)(OCC)OCC` (stereo not given), the MIC with Bacillus subtilis [5], against Escherichia coli [6], in the assay on Aspergillus niger [7] and in the assay on Candida albicans [8] was 10 mg/L (≈ 21.7 µM) each time.

In the case of `Cc1ccc(-c2nnnn2-c2nc3ccccc3s2)cc1`, the MIC with Escherichia coli [9], in the assay on Pseudomonas aeruginosa [10], in the assay with Staphylococcus aureus [11], in the assay with Bacillus cereus [12], against Candida albicans [13] and in the assay on Aspergillus niger [20] was 50 to 100 mg/L (≈ 170 to 341 µM) throughout. Also, the zone of inhibition at 250 µg/mL with Staphylococcus aureus [14], with Bacillus cereus [15], with Escherichia coli [16], with Pseudomonas aeruginosa [17], in the assay with Candida albicans [18] and with Aspergillus niger [19] was 16 to 26 mm each time.

Turning to `CCOC(=O)C(C#N)C(c1cc2cc(C)ccc2n2nnnc12)P(=O)(OCC)OCC` (stereo not given), the MIC in the assay on Bacillus subtilis [5], against Escherichia coli [6], against Aspergillus niger [7] and in the assay on Candida albicans [8] was 10 to 20 mg/L (≈ 22.5 to 44.9 µM) throughout.

As for `CCOC(=O)C(C#N)C(c1cc2ccc(CC)cc2n2nnnc12)P(=O)(OCC)OCC` (stereo not given), the MIC against Bacillus subtilis [5], in the assay on Escherichia coli [6], against Aspergillus niger [7] and with Candida albicans [8] was 10 to 20 mg/L (≈ 21.8 to 43.5 µM) each time.

Turning to `CCOC(=O)C(C#N)C(c1cc2cc(OC)ccc2n2nnnc12)P(=O)(OCC)OCC` (stereo not given), the MIC with Bacillus subtilis [5], against Escherichia coli [6], against Aspergillus niger [7] and in the assay with Candida albicans [8] was 10 to 20 mg/L (≈ 21.7 to 43.3 µM) each time.

In the case of `CN(C)c1ccc(/C=C/C(=O)n2nnnc2-c2ccccc2)cc1`, the zone of inhibition at 50 µg/mL in the assay with Escherichia coli [1], in the assay on Staphylococcus aureus [2], in the assay on Aspergillus niger [3] and with Candida albicans [4] was 8 to 15 mm throughout.

Take `CCOC(=O)C(C#N)C(c1cc2c(OCC)cccc2n2nnnc12)P(=O)(OCC)OCC` (stereo not given): the MIC in the assay with Bacillus subtilis [5], against Escherichia coli [6], against Aspergillus niger [7] and against Candida albicans [8] was 10 to 20 mg/L (≈ 21 to 42.1 µM) in each case.

In the case of `Oc1ccc(-c2nnnn2-c2nc3ccccc3s2)cc1O`, the MIC against Escherichia coli [9], with Pseudomonas aeruginosa [10], in the assay with Staphylococcus aureus [11], against Bacillus cereus [12], with Candida albicans [13] and in the assay on Aspergillus niger [20] was 50 to 100 mg/L (≈ 161 to 321 µM) throughout. Moreover, the zone of inhibition at 250 µg/mL with Staphylococcus aureus [14], with Bacillus cereus [15], with Escherichia coli [16], in the assay with Pseudomonas aeruginosa [17], with Candida albicans [18] and with Aspergillus niger [19] was 16 to 26 mm each time.

Take `O=C(/C=C/c1ccccc1[N+](=O)[O-])n1nnnc1-c1ccccc1`: the zone of inhibition at 50 µg/mL in the assay on Escherichia coli [1], in the assay with Staphylococcus aureus [2], with Aspergillus niger [3] and with Candida albicans [4] was 8 to 15 mm in each case.

As for `Oc1ccc(-c2nnnn2-c2nc3ccccc3s2)cc1`, the MIC in the assay with Escherichia coli [9], against Pseudomonas aeruginosa [10], with Staphylococcus aureus [11], against Bacillus cereus [12], against Candida albicans [13] and in the assay with Aspergillus niger [20] was 50 to 100 mg/L (≈ 169 to 339 µM) throughout. The zone of inhibition at 250 µg/mL in the assay with Staphylococcus aureus [14], with Bacillus cereus [15], in the assay with Escherichia coli [16], in the assay on Pseudomonas aeruginosa [17], in the assay on Candida albicans [18] and with Aspergillus niger [19] was 16 to 26 mm each time.

In the case of `COC1=CC(=O)C[C@@H](C)[C@]12Oc1c(Cl)c(OC)cc(OC)c1C2=O` [GRISEOFULVIN], the zone of inhibition at 50 µg/mL in the assay on Escherichia coli [1], with Staphylococcus aureus [2], in the assay with Aspergillus niger [3] and in the assay with Candida albicans [4] was 21 to 24 mm each time. Further, the MIC with Bacillus subtilis [5], against Escherichia coli [6], against Aspergillus niger [7] and against Candida albicans [8] was 10 mg/L (≈ 28.3 µM) each time.

Regarding `CCn1cc(C(=O)O)c(=O)c2cnc(N3CCNCC3)nc21` [PIPEMIDIC ACID], the MIC in the assay with Escherichia coli [9], against Bacillus subtilis [21], against Salmonella typhimurium, against Priestia megaterium and in the assay on Micrococcus luteus was 31.2 mg/L (≈ 103 µM) each time.

In general, MIC refers to the lowest concentration that inhibits growth of the organism. A lower MIC goes with greater potency.
